Consider 14 molecules from PubChem BioAssay (NCI).

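1) Cells in 96-well plates. 2) Compound, 48 h, 5 concentrations. 3) Linear interpolation between surrounding doses. 4) Unreached endpoint = highest concentration. GI50 marks 50% less growth. TGI: concentration producing complete growth inhibition.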

Test systems include RPMI-8226 leukemia; UACC-257 melanoma; MCF7 breast; NCI-H460 lung; MDA-MB-435; U251 CNS; LOX IMVI melanoma; NCI-H226 lung; 786-0 renal; MDA-N; MOLT-4 leukemia.
Common to all, as to experiment: inhibition of tumour cell growth, NCI panel, 48 h

Consider `O=C1/C(=C/c2ccc(O)cc2)CCC1CNc1ccccc1` (centres undefined), for which the TGI was 5.12 µM with RPMI-8226 leukemia; 30.6 µM in the assay on UACC-257 melanoma; 10.2 µM in the assay on MCF7 breast; 50.9 µM in the assay with NCI-H460 lung; 36.2 µM in the assay on MDA-MB-435; 30.3 µM with U251 CNS. Further, the TGI with LOX IMVI melanoma came out at 22.2 µM; with NCI-H226 lung, 37.9 µM; in the assay on 786-0 renal, 18.9 µM.
For `O=c1c(O)cccn1C1OC(CO)C(O)C1O` (centres undefined), the TGI with RPMI-8226 leukemia, in the assay with UACC-257 melanoma, in the assay with NCI-H460 lung, in the assay with U251 CNS, in the assay with LOX IMVI melanoma and in the assay with NCI-H226 lung was over 100 µM throughout. Besides, in the assay with 786-0 renal, the TGI is over 100 µM.
On to `Cn1c2ccc(C3=NCCN3)cc2c2cc(C3=NCCN3)ccc21`, for which the TGI with RPMI-8226 leukemia was over 100 µM; in the assay on UACC-257 melanoma it was over 100 µM; with MDA-N, over 100 µM; in the assay on NCI-H460 lung, 25.9 µM; in the assay with MDA-MB-435, over 100 µM; in the assay on U251 CNS, over 100 µM. For the same molecule, the TGI in the assay with LOX IMVI melanoma, in the assay on NCI-H226 lung, with 786-0 renal and in the assay on MOLT-4 leukemia was over 100 µM throughout.
Turning to `COC(=O)[C@@]1(C)CCC[C@]2(C(=O)O)C3Cc4occc4[C@H](C)[C@@H]3CCC21` (some centres undefined), the TGI in the assay with MDA-N, in the assay on NCI-H460 lung, with MDA-MB-435, with U251 CNS, in the assay with NCI-H226 lung and in the assay on 786-0 renal was over 100 µM in each case. In addition, in the assay with MOLT-4 leukemia, the TGI was over 100 µM.
`CC(C)(C)C(=O)N1CCN(C=O)C1=S`: the TGI was over 100 µM with RPMI-8226 leukemia; over 100 µM in the assay with UACC-257 melanoma; 64.5 µM in the assay with MCF7 breast; over 100 µM in the assay with NCI-H460 lung; over 100 µM in the assay on MDA-MB-435; over 100 µM in the assay on U251 CNS. In addition, the TGI in the assay on LOX IMVI melanoma, in the assay with NCI-H226 lung, in the assay with 786-0 renal and in the assay with MOLT-4 leukemia was over 100 µM in each case.
For the molecule `CC1=CC[C@](C)(O)[C@@]2(C)CC[C@H]3C(=C(C)C)C(=O)C[C@]3(C)C[C@H]12`, the TGI was 26.2 µM in the assay with RPMI-8226 leukemia; over 50 µM with UACC-257 melanoma; over 50 µM in the assay on MCF7 breast; over 50 µM in the assay with MDA-MB-435; over 50 µM in the assay with U251 CNS; 17 µM with LOX IMVI melanoma. In addition, the TGI was over 50 µM with NCI-H226 lung, over 50 µM in the assay with 786-0 renal and 25.7 µM with MOLT-4 leukemia.
Regarding `Cc1nc2c(n1-c1ccccc1)C(=O)c1ccccc1C2=O`, the TGI is 51.5 µM with UACC-257 melanoma; over 100 µM in the assay with NCI-H460 lung; over 100 µM in the assay with U251 CNS; over 100 µM with NCI-H226 lung; over 100 µM in the assay with 786-0 renal; over 100 µM with MOLT-4 leukemia.
As for `NC(=S)NNC(=S)NC(=O)c1ccco1`, the TGI with RPMI-8226 leukemia, in the assay with UACC-257 melanoma, in the assay with MDA-N, in the assay with NCI-H460 lung, with MDA-MB-435 and with U251 CNS was over 10 µM throughout. The TGI in the assay on LOX IMVI melanoma, with NCI-H226 lung, in the assay on 786-0 renal and in the assay on MOLT-4 leukemia was over 10 µM in each case.
`CS(=O)(=O)[O-].CS(=O)(=O)[O-].NC1CCCCC1N.[Pt+4]` (centres undefined): the GI50 in the assay with RPMI-8226 leukemia was 17.7 µM; with UACC-257 melanoma, over 100 µM; in the assay with MCF7 breast, 66.3 µM; with NCI-H460 lung it was 47.2 µM; in the assay on U251 CNS, over 87.2 µM; with LOX IMVI melanoma, over 61 µM. In addition, the GI50 was 39.2 µM with NCI-H226 lung and 29 µM in the assay on MOLT-4 leukemia. Besides, the TGI with RPMI-8226 leukemia, in the assay on UACC-257 melanoma, in the assay on MCF7 breast, in the assay with NCI-H460 lung, in the assay on U251 CNS and in the assay on LOX IMVI melanoma was over 100 µM each time. The TGI in the assay on NCI-H226 lung and with MOLT-4 leukemia was over 100 µM each time.
On to `C[PH+](c1nc2ccccc2nc1[PH+](C)C(C)(C)C)C(C)(C)C.C[PH+](c1nc2ccccc2nc1[PH+](C)C(C)(C)C)C(C)(C)C.[Au+].[Cl-]` (centres undefined), for which the GI50 in the assay with RPMI-8226 leukemia was 0.0357 µM; with UACC-257 melanoma, 0.0359 µM; in the assay on MDA-MB-435, 0.0345 µM; in the assay on LOX IMVI melanoma, 0.0396 µM; in the assay with NCI-H226 lung, 0.0539 µM. Besides, the TGI in the assay on RPMI-8226 leukemia stood at 0.245 µM; with UACC-257 melanoma, 0.278 µM; with MDA-MB-435, 0.158 µM; with LOX IMVI melanoma, 0.155 µM; with NCI-H226 lung it was 2.44 µM.
For the molecule `O=NN1CCCS1(=O)=O`, the TGI in the assay on RPMI-8226 leukemia, in the assay with UACC-257 melanoma, in the assay on MCF7 breast, in the assay on NCI-H460 lung, in the assay with U251 CNS and in the assay on LOX IMVI melanoma was over 100 µM throughout. Further, the TGI in the assay with NCI-H226 lung, with 786-0 renal and with MOLT-4 leukemia was over 100 µM throughout.
With `COc1ccc(NC(=O)CC(=O)N2N=C(N(c3ccccc3)c3ccccc3)CC2c2ccccc2)cc1` (centres undefined), the TGI in the assay with RPMI-8226 leukemia, in the assay on UACC-257 melanoma, in the assay with MCF7 breast, in the assay on MDA-MB-435, in the assay with U251 CNS and in the assay with LOX IMVI melanoma was over 100 µM in each case. In addition, the TGI in the assay on NCI-H226 lung, in the assay with 786-0 renal and with MOLT-4 leukemia was over 100 µM in each case.
As to `Cc1ccc(/C=C2/NC(=S)SC2=O)cc1`, the TGI was over 100 µM with UACC-257 melanoma; over 100 µM in the assay with MCF7 breast; 50.4 µM in the assay on NCI-H460 lung; over 100 µM in the assay with MDA-MB-435; over 100 µM in the assay with U251 CNS; over 100 µM in the assay on LOX IMVI melanoma. Moreover, the TGI with NCI-H226 lung, in the assay with 786-0 renal and in the assay with MOLT-4 leukemia was over 100 µM throughout.
With `Cc1cc2nc(-c3c(N)ncc(C#N)c3-c3ccc(Cl)cc3)[nH]c2cc1C`, the GI50 with RPMI-8226 leukemia was 5.55 µM; in the assay with UACC-257 melanoma it was 11.4 µM; in the assay on MCF7 breast it was 9.34 µM; in the assay with NCI-H460 lung, 30.4 µM; in the assay with MDA-MB-435 it was 26.2 µM; in the assay on U251 CNS it was 5.48 µM. Moreover, the figures for the GI50 with LOX IMVI melanoma, in the assay with NCI-H226 lung and in the assay on MOLT-4 leukemia were 5.83 µM, 15 µM and over 100 µM, respectively. The TGI with RPMI-8226 leukemia is over 100 µM; with UACC-257 melanoma, 82.6 µM; in the assay on MCF7 breast it was over 100 µM; with NCI-H460 lung it was over 100 µM; with MDA-MB-435, over 100 µM; in the assay with U251 CNS, 21.4 µM. Moreover, the TGI with LOX IMVI melanoma is 26 µM; in the assay with NCI-H226 lung, 46.3 µM; in the assay on MOLT-4 leukemia, over 100 µM.
